From patent US12433292B2, “Method of production of controlled release silica nanoparticles for plant growth and/or defense enhancement” (ADOLPHE MERKLE INSTITUTE, UNIVERSITY OF FRIBOURG, priority 2019, dated 2025)

Columns and labels:
[1] = tested on: Medicago sativa (alfalfa) seeds; test: Alfalfa germination test
Protocol: (§1) Independent 60 seed to 800 seed germination tests were conducted following standard seed testing protocols. Briefly, the seeds were placed on filter paper wettened with the active ingredient solution or nanoparticle suspension under investigation and germinated for 5-10 days. The infection of seeds with fungi and bacteria, and the germination rates were determined by counting the infested and germinated seeds, respectively. The germination speed was assessed by counting all fully emerged cotyledons. Blanks (water only) and dissolved silicon control (orthosilicic acid solution) were run in parallel to all experiments in 3-8 replicates. As a positive control, a solution of the commercially available fungicide tebuconazole was run in parallel. The SiO2-NP exposed plants were embedded in low viscosity epoxy resin for transmission electron microscopy imaging.

fungi and bacteria = test: Alfalfa germination test: infection of seeds; format: in vivo, Medicago sativa; conditions: positive control
Protocol: as §1

Compound	cotyledon emergence ([1]; 100 ppm)	germination ([1]; 100 ppm)	adverse effects on germinating seeds ([1]; 4000 ppm)	toxicity to the seed ([1]; same or comparable concentrations)	effect on fungi (fungi and bacteria)	overall effect on fungal infection, cotyledon emergence, seed vigor and biomass ([1]; germination and soil growth tests)
CC(C)(C)C(O)(CCc1ccc(Cl)cc1)Cn1cncn1 (stereo not drawn) [tebuconazole]	detrimental effects	detrimental effects	some adverse effects	exhibited toxicity to the seeds	killing all fungi	
orthosilicic acid						performed equally or worse compared to the nanoparticles
